Experimental data published in patent US12245997B2, “Endoxifen for the treatment of bipolar I disorder” (priority 2020, dated 2025).

Columns and labels:
PKC [1] = test: Inhibition of PKC activity; format: biochemical; details: relative to tamoxifen
[2] = Therapeutic index comparison; details: as compared to divalproex sodium
PKC [3] = details: cited from earlier work
[4] = in human; cited from earlier work

For `CC/C(=C(\c1ccc(O)cc1)c1ccc(OCCNC)cc1)c1ccccc1.O=C(O)CC(O)(CC(=O)O)C(=O)O` [Endoxifen, (Z)-1-(4-Hydroxyphenyl)-1-{4-[2-(monomethylamino)ethoxy]phenyl}-2-phenyl-1-butene citrate], the “potency in inhibiting the PKC activity compared to tamoxifen” value (PKC [1]) was “four-fold higher potency” and the therapeutic index [2] was “broad therapeutic index”.

In the case of `CC/C(=C(\c1ccccc1)c1ccc(OCCN(C)C)cc1)c1ccccc1` [Tamoxifen], the PKC inhibition (PKC [3]) is given as “known to inhibit PKC” and the antimanic properties [4] is given as “demonstrate antimanic properties in human”.
